# Measured values as given in US8753833B2, “Copolymer assay” (Momenta Pharmaceuticals, Inc., priority 2007, dated 2014).
# Marks after values point to notes of the source that are not given here.
# How the values were obtained:
# THP-1 cells [1] = assay: THP-1 copolymer assay: secretion of IFN-γ-regulated chemokines, cytokines, receptors and proteases, Searchlight multiplex analysis; format: cell-based, human; conditions: for I-TAC / IP-10 / MIG: IFN-γ 10 ng/ml, 22-24 hours, 12 samples
# Description: THP-1 cells (ATCC, TIB-202) were received from the American Type Culture Collection (ATCC). […] Cells were grown in complete growth medium and incubated in a 37° C., 5% CO2 incubator.
# Assay medium was prepared fresh the day of the assay. The assay medium consisted of 2 mM Glutamax I Supplement (Invitrogen, 35050-79) in X-VIVO 15 serum-free medium (Cambrex, 04-418Q). These reagents were filtered in a 0.2 micron cellulose acetate filter unit (Nalgene, 156-4020). After filtration, the bottle was covered with foil to protect the medium from light.
# COPAXONE® (glatiramer acetate; Teva Pharmaceuticals) was stored in the manufacturer's syringe at 4° C. Samples were prepared at a 2× concentration in the 2×IFN-γ assay medium in sterile, siliconized microfuge tubes. Final concentrations from 0 μg/ml to 400 μg/ml were tested in the assay.
# Human IFN-γ (R&D Systems, 285-IF-100) was reconstituted with sterile 0.2% bovine serum albumin (BSA) in phosphate-buffered saline (PBS) (Chemicon, 3225-80).
# On the day prior to assay, THP-1 cells were seeded at 2×10^5 cells/ml (20 ml final volume). These cells were harvested by centrifugation at 400×g, 5 min, 18° C. Cells were washed once with assay medium (without IFN-γ) and resuspended in assay medium (without IFN-γ) and counted. THP-1 cells were resuspended at 5×10^5 cells/ml in assay medium (with 0, 1, 10, and 100 ng/ml final concentration of IFN-γ). […] Assay plates were incubated for 0 to 23 hours in a 37° C., 5% CO2 incubator.
# Conditioned medium was harvested into non-sterile, siliconized tubes. Tubes were centrifuged at 400×g, 5 min, 4° C. The supernatants were transferred to new, siliconized tubes and flash frozen in liquid nitrogen. Frozen conditioned medium was stored at −80° C. until they were submitted for Searchlight multiplex cytokine analysis (Pierce Endogen, Woburn, Mass.).
# THP-1 cells [2] = assay: as above; format: cell-based, human; conditions: IFN-γ 10 ng/ml, 22-24 hours, 12 samples
# [3] = 50 μg/ml COPAXONE and 10 ng/ml IFN-γ, FIG. 1
# [4] = 23 hours, GA 2 μg/ml, IFNγ 0 ng/ml
# [5] = 23 hours, GA 2 μg/ml, IFNγ 10 ng/ml
# [6] = 23 hours, GA 2 μg/ml, IFNγ 100 ng/ml
# [7] = 23 hours, GA 2 μg/ml, IFNγ 1000 ng/ml
# [8] = 23 hours, GA 10 μg/ml, IFNγ 0 ng/ml
# [9] = 23 hours, GA 10 μg/ml, IFNγ 10 ng/ml
# [10] = 23 hours, GA 10 μg/ml, IFNγ 100 ng/ml
# [11] = 23 hours, GA 10 μg/ml, IFNγ 1000 ng/ml
# [12] = IFNγ + 50 μg/ml I356 over IFNγ alone (10 ng/ml)
substance,measurement,setting,value
glatiramer acetate [COPAXONE®],"I-TAC level, fold higher than baseline containing IFN-γ alone",THP-1 cells [1]; [3],412 fold
same,"IP-10 level, fold higher than baseline containing IFN-γ alone",THP-1 cells [1]; [3],329 fold
same,"MIG level, fold higher than baseline containing IFN-γ alone",THP-1 cells [1]; [3],573 fold
same,"I-TAC induction, fold increase over the control (0)",THP-1 cells [1]; [4],1 fold
same,"IP-10 induction, fold increase over the control (0)",THP-1 cells [1]; [4],0 fold
same,"MIG induction, fold increase over the control (0)",THP-1 cells [1]; [4],1 fold
same,"I-TAC induction, fold increase over the control (0)",THP-1 cells [1]; [5],10 fold
same,"IP-10 induction, fold increase over the control (0)",THP-1 cells [1]; [5],72 fold
same,"MIG induction, fold increase over the control (0)",THP-1 cells [1]; [5],21 fold
same,"I-TAC induction, fold increase over the control (0)",THP-1 cells [1]; [6],46 fold
same,"IP-10 induction, fold increase over the control (0)",THP-1 cells [1]; [6],49 fold
same,"MIG induction, fold increase over the control (0)",THP-1 cells [1]; [6],39 fold
same,"I-TAC induction, fold increase over the control (0)",THP-1 cells [1]; [7],23 fold
same,"IP-10 induction, fold increase over the control (0)",THP-1 cells [1]; [7],13 fold
same,"MIG induction, fold increase over the control (0)",THP-1 cells [1]; [7],23 fold
same,"I-TAC induction, fold increase over the control (0)",THP-1 cells [1]; [8],4 fold
same,"IP-10 induction, fold increase over the control (0)",THP-1 cells [1]; [8],0 fold
same,"MIG induction, fold increase over the control (0)",THP-1 cells [1]; [8],1 fold
same,"I-TAC induction, fold increase over the control (0)",THP-1 cells [1]; [9],51 fold
same,"IP-10 induction, fold increase over the control (0)",THP-1 cells [1]; [9],233 fold
same,"MIG induction, fold increase over the control (0)",THP-1 cells [1]; [9],284 fold
same,"I-TAC induction, fold increase over the control (0)",THP-1 cells [1]; [10],113 fold
same,"IP-10 induction, fold increase over the control (0)",THP-1 cells [1]; [10],67 fold
same,"MIG induction, fold increase over the control (0)",THP-1 cells [1]; [10],333 fold
same,"I-TAC induction, fold increase over the control (0)",THP-1 cells [1]; [11],49 fold
same,"IP-10 induction, fold increase over the control (0)",THP-1 cells [1]; [11],14 fold
same,"MIG induction, fold increase over the control (0)",THP-1 cells [1]; [11],160 fold
same,IFN-γ concentration at which fold-induction over baseline is maximal,"THP-1 cells [1]; 23 hours, IP-10, I-TAC, MIG",1 to 10 ng/mL
same,IP-10 production in the absence of IFN-γ,"THP-1 cells [1]; COPAXONE alone, no IFN-γ",do not produce any significant amount
same,"Earliest time at which lower levels of IP-10, I-TAC and MIG can be detected",THP-1 cells [1]; COPAXONE and the higher IFN-γ concentrations,3 to 6 h
same,"Effect on secretion of IP-10, I-TAC and MIG",THP-1 cells [1]; COPAXONE in combination with IFN-γ,"striking, concentration-dependent effect"
same,I309 secretion,THP-1 cells [1]; IFNγ 10 ng/ml + 50 μg/ml I356,15.6* pg/ml
same,ICAM1 secretion,THP-1 cells [1]; IFNγ 10 ng/ml + 50 μg/ml I356,279.9* pg/ml
same,IL1β secretion,THP-1 cells [1]; IFNγ 10 ng/ml + 50 μg/ml I356,0.5* pg/ml
same,IL12p70 secretion,THP-1 cells [1]; IFNγ 10 ng/ml + 50 μg/ml I356,8.9* pg/ml
same,IL-6 secretion,THP-1 cells [1]; IFNγ 10 ng/ml + 50 μg/ml I356,3.8* pg/ml
same,IL-8 secretion,THP-1 cells [1]; IFNγ 10 ng/ml + 50 μg/ml I356,217.1* pg/ml
same,IL-10 secretion,THP-1 cells [1]; IFNγ 10 ng/ml + 50 μg/ml I356,0.7* pg/ml
same,IP10 secretion,THP-1 cells [1]; IFNγ 10 ng/ml + 50 μg/ml I356,4060.5* pg/ml
same,MCP1 secretion,THP-1 cells [1]; IFNγ 10 ng/ml + 50 μg/ml I356,688.2* pg/ml
same,MDC secretion,THP-1 cells [1]; IFNγ 10 ng/ml + 50 μg/ml I356,23.6* pg/ml
same,MIP1α secretion,THP-1 cells [1]; IFNγ 10 ng/ml + 50 μg/ml I356,73.9* pg/ml
same,MMP2 secretion,THP-1 cells [1]; IFNγ 10 ng/ml + 50 μg/ml I356,915.9* pg/ml
same,MMP9 secretion,THP-1 cells [1]; IFNγ 10 ng/ml + 50 μg/ml I356,8.9* pg/ml
same,RANTES secretion,THP-1 cells [1]; IFNγ 10 ng/ml + 50 μg/ml I356,352.2* pg/ml
same,TARC secretion,THP-1 cells [1]; IFNγ 10 ng/ml + 50 μg/ml I356,35.2* pg/ml
same,TIMP1 secretion,THP-1 cells [1]; IFNγ 10 ng/ml + 50 μg/ml I356,6364.3* pg/ml
same,TNFR1 secretion,THP-1 cells [1]; IFNγ 10 ng/ml + 50 μg/ml I356,35.8* pg/ml
same,TNFR2 secretion,THP-1 cells [1]; IFNγ 10 ng/ml + 50 μg/ml I356,34.4* pg/ml
same,TNFα secretion,THP-1 cells [1]; IFNγ 10 ng/ml + 50 μg/ml I356,61.3* pg/ml
same,IFNγ level in culture medium,"THP-1 cells [1]; IFNγ 10 ng/ml + 50 μg/ml I356, 24 hr",4575.9* pg/ml
same,I309 Fold-increase,THP-1 cells [1]; [12],9.7 fold
same,ICAM1 Fold-increase,THP-1 cells [1]; [12],6.0 fold
same,IFNγ Fold-increase,THP-1 cells [1]; [12],9.7 fold
same,IL1β Fold-increase,THP-1 cells [1]; [12],2.4 fold
same,IL12p70 Fold-increase,THP-1 cells [1]; [12],1.9 fold
same,IL-6 Fold-increase,THP-1 cells [1]; [12],19.0 fold
same,IL-8 Fold-increase,THP-1 cells [1]; [12],8.5 fold
same,IL-10 Fold-increase,THP-1 cells [1]; [12],2.0 fold
same,IP10 Fold-increase,THP-1 cells [1]; [12],226.3 fold
same,MCP1 Fold-increase,THP-1 cells [1]; [12],21.3 fold
same,MDC Fold-increase,THP-1 cells [1]; [12],10.6 fold
same,MIP1α Fold-increase,THP-1 cells [1]; [12],7.1 fold
same,MMP2 Fold-increase,THP-1 cells [1]; [12],5.8 fold
same,MMP9 Fold-increase,THP-1 cells [1]; [12],0.2 fold
same,RANTES Fold-increase,THP-1 cells [1]; [12],3.6 fold
same,TARC Fold-increase,THP-1 cells [1]; [12],3.0 fold
same,TIMP1 Fold-increase,THP-1 cells [1]; [12],1.7 fold
same,TNFR1 Fold-increase,THP-1 cells [1]; [12],5.2 fold
same,TNFR2 Fold-increase,THP-1 cells [1]; [12],3.1 fold
same,TNFα Fold-increase,THP-1 cells [1]; [12],1.8 fold
same,Fold induction over baseline by culture medium,THP-1 cells [1]; X-VIVO15 serum-free defined medium compared with FBS media,highest fold induction over baseline
same,I-TAC,THP-1 cells [1]; [GA] 0.78 μg/ml,16.5 pg/mL
same,IP-10,THP-1 cells [1]; [GA] 0.78 μg/ml,259.2 pg/mL
same,I-TAC,THP-1 cells [1]; [GA] 1.56 μg/ml,42.1 pg/mL
same,IP-10,THP-1 cells [1]; [GA] 1.56 μg/ml,483.7 pg/mL
same,I-TAC,THP-1 cells [1]; [GA] 3.13 μg/ml,82.6 pg/mL
same,IP-10,THP-1 cells [1]; [GA] 3.13 μg/ml,580.8 pg/mL
same,I-TAC,THP-1 cells [1]; [GA] 6.25 μg/ml,105.9 pg/mL
same,IP-10,THP-1 cells [1]; [GA] 6.25 μg/ml,581.4 pg/mL
same,MIG,THP-1 cells [1]; [GA] 6.25 μg/ml,2704.5 pg/mL
same,I-TAC,THP-1 cells [1]; [GA] 12.5 μg/ml,179.2 pg/mL
same,MIG,THP-1 cells [1]; [GA] 12.5 μg/ml,3608 pg/mL
same,IP-10,THP-1 cells [1]; [GA] 25 μg/ml,829 pg/mL
same,MIG,THP-1 cells [1]; [GA] 25 μg/ml,4480.6 pg/mL
same,I-TAC,THP-1 cells [1]; [GA] 50 μg/ml,532.6 pg/mL
same,IP-10,THP-1 cells [1]; [GA] 50 μg/ml,2150.8 pg/mL
same,MIG,THP-1 cells [1]; [GA] 50 μg/ml,13771.2 pg/mL
same,I-TAC,THP-1 cells [1]; [GA] 100 μg/ml,2444 pg/mL
same,IP-10,THP-1 cells [1]; [GA] 100 μg/ml,12865.1 pg/mL
same,MIG,THP-1 cells [1]; [GA] 100 μg/ml,45353.3 pg/mL
same,I-TAC,THP-1 cells [1]; [GA] 200 μg/ml,2091.2 pg/mL
same,MIG,THP-1 cells [1]; [GA] 200 μg/ml,37897.5 pg/mL
same,I-TAC,THP-1 cells [1]; [GA] 400 μg/ml,1560.5 pg/mL
same,IP-10,THP-1 cells [1]; [GA] 400 μg/ml,6111.3 pg/mL
same,IFN-γ levels with COPAXONE treatment,THP-1 cells [1]; measured at 24 hours,concentration-dependent increase
same,"Secretion of IP-10, MIG, I-TAC and IFN-γ in all medium conditions",THP-1 cells [1]; various concentrations of FBS or X-VIVO15 serum-free medium,robust secretion
same,MIG,THP-1 cells [2]; [GA] 0.78 μg/ml,149.7 pg/mL
same,MIG,THP-1 cells [2]; [GA] 1.56 μg/ml,345.6 pg/mL
same,MIG,THP-1 cells [2]; [GA] 3.13 μg/ml,933.6 pg/mL
same,IP-10,THP-1 cells [2]; [GA] 12.5 μg/ml,782.6 pg/mL
same,I-TAC,THP-1 cells [2]; [GA] 25 μg/ml,247.1 pg/mL
same,IP-10,THP-1 cells [2]; [GA] 200 μg/ml,10899 pg/mL
same,MIG,THP-1 cells [2]; [GA] 400 μg/ml,27574.5 pg/mL
